Some test systems named below: MDA-MB-231 breast; NCI-H460 lung; SF-295 CNS; HCT-15 colon; HOP-92 NSCLC; SNB-19 CNS; MOLT-4 leukemia; HL-60(TB) leukemia.
Common to all, as to assay: NCI tumour cell line growth inhibition, 48 h

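96-well plates; 48 h exposure; 5 concentrations. Endpoints by linear interpolation between flanking doses. Not reached: highest tested concentration assigned. The concentration for 50% growth inhibition is given as GI50. TGI marks complete inhibition of growth.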

As for `N#CC1=C(N)Oc2c(sc3c(F)cccc23)C1c1ccc([N+](=O)[O-])cc1` (centres undefined), the GI50 in the assay on MDA-MB-231 breast is 0.215 µM; with NCI-H460 lung, 0.253 µM; in the assay on SF-295 CNS it was 0.184 µM; with HCT-15 colon it was 0.0682 µM; in the assay on HOP-92 NSCLC, 0.156 µM; in the assay with SNB-19 CNS, 0.241 µM. In addition, the GI50 is 0.132 µM with MOLT-4 leukemia and 0.212 µM in the assay on HL-60(TB) leukemia. In addition, the TGI stood at 1.21 µM with MDA-MB-231 breast; 1.17 µM with NCI-H460 lung; 1.11 µM in the assay with SF-295 CNS; 1.41 µM in the assay on HCT-15 colon; 1.18 µM in the assay with HOP-92 NSCLC; 1.51 µM in the assay with SNB-19 CNS. Besides, the results for the TGI in the assay on MOLT-4 leukemia and in the assay on HL-60(TB) leukemia were 1.46 µM and 0.806 µM, respectively.

On to `COc1ccc(/C=N/NC(=O)O)cc1`, for which the TGI in the assay on MDA-MB-231 breast, in the assay on NCI-H460 lung, with SF-295 CNS, in the assay on HCT-15 colon, in the assay on SNB-19 CNS and in the assay on MOLT-4 leukemia was above 100 µM each time.

For `C=CC(=O)Nc1cc2c(Nc3ccc(OCc4ccccn4)c(Cl)c3)ncnc2cc1OCCN1CCOCC1`, the GI50 was 2.17 µM in the assay with MDA-MB-231 breast; 4.28 µM in the assay with NCI-H460 lung; 4.87 µM in the assay on SF-295 CNS; 2.49 µM with HCT-15 colon; 1.02 µM with HOP-92 NSCLC; 3.65 µM in the assay with SNB-19 CNS. The GI50 in the assay with MOLT-4 leukemia is 3.02 µM; in the assay with HL-60(TB) leukemia, 2.58 µM. Also, the TGI in the assay on MDA-MB-231 breast was 34.2 µM; in the assay on NCI-H460 lung it was above 100 µM; with SF-295 CNS it was above 100 µM; in the assay on HCT-15 colon, 14.9 µM; in the assay on HOP-92 NSCLC, 9.06 µM; in the assay with SNB-19 CNS it was above 100 µM. Also, the values for the TGI in the assay with MOLT-4 leukemia and with HL-60(TB) leukemia were above 85.1 µM and 22.5 µM, respectively.

In the case of `O=C1C(Nc2ccccn2)=C(I)C(=O)c2ncccc21`, the GI50 was 1.53 µM with MDA-MB-231 breast; 0.295 µM in the assay on NCI-H460 lung; 1.19 µM with SF-295 CNS; 0.226 µM in the assay on HCT-15 colon; 1.65 µM in the assay on HOP-92 NSCLC; 1.04 µM in the assay on SNB-19 CNS. Besides, the GI50 in the assay with MOLT-4 leukemia was 0.702 µM; in the assay on HL-60(TB) leukemia it was 1.63 µM. Besides, the TGI in the assay with MDA-MB-231 breast stood at 4.86 µM; in the assay on NCI-H460 lung, 1.1 µM; with SF-295 CNS, 2.56 µM; in the assay with HCT-15 colon, 1.39 µM; in the assay on HOP-92 NSCLC, 4.36 µM; in the assay on SNB-19 CNS, 2.24 µM. The TGI in the assay on MOLT-4 leukemia turned out to be 4.66 µM; in the assay with HL-60(TB) leukemia, 3.77 µM.

For the compound `COCCOC(C)C(/C=N/NC(N)=S)=N/NC(N)=S` (centres undefined), the GI50 with NCI-H460 lung was above 100 µM; in the assay with HCT-15 colon it was above 100 µM; in the assay with HOP-92 NSCLC it was above 100 µM; in the assay with SNB-19 CNS, above 100 µM; with MOLT-4 leukemia, 0.0558 µM. Moreover, the TGI in the assay with NCI-H460 lung, in the assay on SF-295 CNS, with HCT-15 colon, in the assay on HOP-92 NSCLC, with SNB-19 CNS and in the assay on MOLT-4 leukemia was above 100 µM throughout. Besides, in the assay with HL-60(TB) leukemia, the TGI is above 58.9 µM.

For the compound `O=C1c2cccc3c(N4CCN(c5ccc6c7c(cccc57)C(=O)N(CCN5CCNCC5)C6=O)CC4)ccc(c23)C(=O)N1CCN1CCNCC1`, the GI50 in the assay on MDA-MB-231 breast was 10.4 µM; in the assay with NCI-H460 lung it was 12.5 µM; with SF-295 CNS, 15.5 µM; with HCT-15 colon, 11.3 µM; with HOP-92 NSCLC, 7.31 µM; in the assay with SNB-19 CNS, 16.1 µM. Also, in the assay with HL-60(TB) leukemia, the GI50 is 4.19 µM. Besides, the TGI in the assay on MDA-MB-231 breast came out at 25.1 µM; with NCI-H460 lung, 80 µM; in the assay on SF-295 CNS, 35.7 µM; with HCT-15 colon, 31.3 µM; in the assay on HOP-92 NSCLC, 29 µM; in the assay with SNB-19 CNS, 61.6 µM. Moreover, in the assay with HL-60(TB) leukemia, the TGI was found to be 20.6 µM.

With `CSC(=S)NN=C1CCCCC1`, the TGI with MDA-MB-231 breast, in the assay on NCI-H460 lung, with SF-295 CNS, in the assay on HCT-15 colon, in the assay on HOP-92 NSCLC and in the assay on SNB-19 CNS was above 100 µM each time. Moreover, the TGI in the assay with MOLT-4 leukemia came to 40.8 µM.

Regarding `C=CC1=C(C)C2=NC1=CC1=NC(=C(CC)/C1=C/O)C=C1C=C3C(=O)C(C(=O)OC)C(=C4NC(=C2)C(C)C4CCC(=O)OC/C=C(\C)CCCC(C)CCCC(C)CCCC(C)C)C3=N1` (centres undefined) (tested in a mixture with another compound), the TGI with MDA-MB-231 breast, with NCI-H460 lung, with SF-295 CNS, in the assay with HCT-15 colon, in the assay with HOP-92 NSCLC and in the assay on SNB-19 CNS was above 100 µM throughout. The compound further displayed a TGI in the assay with MOLT-4 leukemia above 100 µM.

With `N#Cc1cccc(Nc2nccc(-c3cnn4ncccc34)n2)c1`, the GI50 in the assay with NCI-H460 lung was 0.00837 µM; in the assay on SF-295 CNS it was 0.00487 µM; in the assay with HCT-15 colon, 0.0071 µM; with HOP-92 NSCLC, 0.00589 µM; in the assay with SNB-19 CNS, 0.00702 µM; in the assay on HL-60(TB) leukemia, 0.00363 µM. The TGI in the assay on NCI-H460 lung was above 25 µM; with SF-295 CNS, 0.0223 µM; in the assay on HCT-15 colon, above 25 µM; with HOP-92 NSCLC, 0.0166 µM; with SNB-19 CNS it was above 25 µM; in the assay on HL-60(TB) leukemia, below 0.0129 µM.

In the case of `COc1cc2cc(C(=O)O)[nH]c2cc1OCc1ccccc1`, the GI50 in the assay on MDA-MB-231 breast was above 100 µM; in the assay on NCI-H460 lung it was above 100 µM; in the assay on SF-295 CNS, above 100 µM; in the assay on HCT-15 colon, 84 µM; with SNB-19 CNS, above 100 µM; in the assay on MOLT-4 leukemia, above 100 µM. Moreover, the GI50 in the assay with HL-60(TB) leukemia was above 100 µM. Further, the TGI in the assay on MDA-MB-231 breast, with NCI-H460 lung, in the assay with SF-295 CNS, with HCT-15 colon, in the assay with SNB-19 CNS and in the assay on MOLT-4 leukemia was above 100 µM each time. The compound further came in with a TGI in the assay with HL-60(TB) leukemia above 100 µM.

Take `C[C@]12CC[C@@H]3c4ccc(O)cc4CC[C@H]3[C@@H]1CC[C@@H]2NS(=O)(=O)c1cccc(Br)c1`: the GI50 was 3.88 µM in the assay on MDA-MB-231 breast; 2.53 µM in the assay on NCI-H460 lung; 3.19 µM in the assay on SF-295 CNS; 2.77 µM in the assay on HCT-15 colon; 1.85 µM in the assay on HOP-92 NSCLC; 7.09 µM in the assay on SNB-19 CNS. Besides, the GI50 in the assay on MOLT-4 leukemia was 2.59 µM. Moreover, the TGI in the assay with MDA-MB-231 breast stood at 13.9 µM; in the assay on NCI-H460 lung it was 6.67 µM; with SF-295 CNS, 11.7 µM; with HCT-15 colon it was 11.1 µM; in the assay with HOP-92 NSCLC it was 6.44 µM; with SNB-19 CNS it was 20.4 µM. Moreover, in the assay on MOLT-4 leukemia, the TGI was 12.7 µM.

The record behind these values is PubChem BioAssay (NCI).
